How the values were obtained:
Estrogen receptor = molecular target: T1, Estrogen receptor (Homo sapiens, UniProt P03372); assay: Agonist activity at estrogen receptor alpha ligand binding domain expressed in african green monkey COS7 cells co-transfected with Gal4-LBD by luciferase reporter gene assay; format: cell-based, COS-7
T1 sequence (P03372 whole entry): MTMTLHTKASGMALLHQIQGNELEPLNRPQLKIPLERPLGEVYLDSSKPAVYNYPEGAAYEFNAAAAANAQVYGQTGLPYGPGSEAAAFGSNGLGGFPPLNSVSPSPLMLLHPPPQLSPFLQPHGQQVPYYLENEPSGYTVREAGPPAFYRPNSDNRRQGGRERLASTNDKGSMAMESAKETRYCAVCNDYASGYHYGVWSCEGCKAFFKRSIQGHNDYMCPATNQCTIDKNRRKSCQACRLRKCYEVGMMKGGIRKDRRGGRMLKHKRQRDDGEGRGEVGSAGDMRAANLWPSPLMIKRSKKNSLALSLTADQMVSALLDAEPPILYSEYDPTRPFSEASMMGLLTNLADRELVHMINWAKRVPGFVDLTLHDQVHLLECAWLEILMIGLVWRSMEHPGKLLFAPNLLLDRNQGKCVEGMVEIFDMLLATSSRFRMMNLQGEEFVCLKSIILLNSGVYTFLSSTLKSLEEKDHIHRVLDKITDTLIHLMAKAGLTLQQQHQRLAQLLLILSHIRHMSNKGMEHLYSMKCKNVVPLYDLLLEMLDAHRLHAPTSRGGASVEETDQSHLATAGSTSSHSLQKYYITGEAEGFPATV

[1] = molecular target: T2, Mineralocorticoid receptor (Homo sapiens, UniProt P08235); assay: Agonist activity at mineralocorticoid receptor ligand binding domain expressed in african green monkey COS7 cells co-transfected with Gal4-LBD up to 10 uM by luciferase reporter gene assay; format: cell-based; details: cos-7
T2 sequence (P08235 whole entry): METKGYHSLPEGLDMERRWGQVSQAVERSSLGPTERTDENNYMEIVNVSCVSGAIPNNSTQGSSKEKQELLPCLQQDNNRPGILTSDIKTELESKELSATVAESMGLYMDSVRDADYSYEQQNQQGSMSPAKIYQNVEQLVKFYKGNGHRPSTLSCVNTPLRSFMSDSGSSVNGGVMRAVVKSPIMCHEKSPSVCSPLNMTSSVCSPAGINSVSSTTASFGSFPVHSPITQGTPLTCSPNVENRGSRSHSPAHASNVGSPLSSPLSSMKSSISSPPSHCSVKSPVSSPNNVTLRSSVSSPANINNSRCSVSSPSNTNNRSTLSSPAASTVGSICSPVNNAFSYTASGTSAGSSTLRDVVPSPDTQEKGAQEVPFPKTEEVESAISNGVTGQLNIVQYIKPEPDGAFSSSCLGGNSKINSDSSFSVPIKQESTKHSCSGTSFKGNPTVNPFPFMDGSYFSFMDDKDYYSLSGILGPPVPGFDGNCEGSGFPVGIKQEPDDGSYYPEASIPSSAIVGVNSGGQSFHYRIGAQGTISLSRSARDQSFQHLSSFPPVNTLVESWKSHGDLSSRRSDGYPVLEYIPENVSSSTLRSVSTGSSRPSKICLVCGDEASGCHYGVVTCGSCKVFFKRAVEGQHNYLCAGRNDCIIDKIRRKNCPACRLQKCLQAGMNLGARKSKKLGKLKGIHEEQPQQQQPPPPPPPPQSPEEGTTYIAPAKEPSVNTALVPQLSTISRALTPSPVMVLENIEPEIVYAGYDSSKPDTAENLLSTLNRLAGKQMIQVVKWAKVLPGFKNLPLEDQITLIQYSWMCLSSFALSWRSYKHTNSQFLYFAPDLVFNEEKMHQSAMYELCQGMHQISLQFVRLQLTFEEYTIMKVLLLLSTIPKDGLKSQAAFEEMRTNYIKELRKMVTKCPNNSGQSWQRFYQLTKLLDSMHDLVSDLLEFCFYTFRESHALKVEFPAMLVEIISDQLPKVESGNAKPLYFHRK

[2] = molecular target: T3, Estrogen receptor (Homo sapiens) (UniProt P03372); assay: Agonist activity at estrogen receptor alpha ligand binding domain expressed in african green monkey COS7 cells co-transfected with Gal4-LBD by luciferase reporter gene assay relative to control; format: cell-based; details: COS-7
T3 sequence (whole entry): T1 sequence (P03372 whole entry)

Androgen receptor = molecular target: T4, Androgen receptor (Homo sapiens, UniProt P10275); assay: Agonist activity at androgen receptor ligand binding domain expressed in african green monkey COS7 cells co-transfected with Gal4-DBD up to 10 uM by luciferase reporter gene assay; format: cell-based; details: cos-7
T4 sequence (P10275 whole entry): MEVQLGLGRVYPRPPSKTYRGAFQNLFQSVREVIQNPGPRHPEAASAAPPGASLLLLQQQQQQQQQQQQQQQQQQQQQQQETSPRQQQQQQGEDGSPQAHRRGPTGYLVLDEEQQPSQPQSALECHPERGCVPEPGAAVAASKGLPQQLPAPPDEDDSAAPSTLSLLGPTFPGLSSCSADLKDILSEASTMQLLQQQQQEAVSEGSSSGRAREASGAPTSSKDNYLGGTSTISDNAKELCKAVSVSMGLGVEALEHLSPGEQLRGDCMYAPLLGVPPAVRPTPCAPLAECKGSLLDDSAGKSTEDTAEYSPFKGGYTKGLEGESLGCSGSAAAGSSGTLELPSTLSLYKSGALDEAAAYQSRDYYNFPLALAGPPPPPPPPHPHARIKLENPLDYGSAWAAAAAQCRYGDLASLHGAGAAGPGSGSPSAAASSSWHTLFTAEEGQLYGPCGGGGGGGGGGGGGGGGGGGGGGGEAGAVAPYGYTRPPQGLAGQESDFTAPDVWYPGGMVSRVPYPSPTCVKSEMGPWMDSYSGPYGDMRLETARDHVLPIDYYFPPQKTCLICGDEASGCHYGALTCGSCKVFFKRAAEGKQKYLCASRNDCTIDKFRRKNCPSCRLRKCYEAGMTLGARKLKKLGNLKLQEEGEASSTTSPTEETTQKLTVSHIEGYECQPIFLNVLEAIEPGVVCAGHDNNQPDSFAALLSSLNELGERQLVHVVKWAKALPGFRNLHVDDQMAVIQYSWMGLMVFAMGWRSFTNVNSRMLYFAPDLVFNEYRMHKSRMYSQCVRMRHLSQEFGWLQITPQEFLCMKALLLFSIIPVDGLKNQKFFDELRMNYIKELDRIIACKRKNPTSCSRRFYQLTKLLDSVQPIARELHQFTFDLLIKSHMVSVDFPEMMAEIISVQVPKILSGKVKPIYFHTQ

CC1(C)[C@H](O)CC[C@]2(C)[C@@]3(C)c4[nH]c5ccccc5c4C[C@@H]3CC[C@@]12O [LECANINDOLE D]
EC50 (Estrogen receptor): > 10 µM
EC50 [1]: Not Active
Activity [2]: 35%
EC50 (Androgen receptor): Not Active

CC1(C)C(=O)CC[C@]2(C)[C@@]3(C)c4[nH]c5ccccc5c4C[C@@H]3CC[C@@]12O [LECANINDOLE B]
EC50 (Estrogen receptor): > 10 µM
EC50 [1]: Not Active
Activity [2]: 8%
EC50 (Androgen receptor): Not Active

Reference: ChEMBL document CHEMBL1154793, “The lecanindoles, nonsteroidal progestins from the terrestrial fungus Verticillium lecanii 6144” (J Nat Prod, 2009)
